Data from US20170274174A1, “SYSTEM AND METHOD FOR ADMINISTERING, MONITORING AND CONTROLLING BIOMIMETIC SLEEP” (THE GENERAL HOSPITAL CORPORATION, priority 2014, published 2017).
Read-outs that look alike come from different tables or passages of the source.

Cc1cccc([C@H](C)c2cnc[nH]2)c1C [dexmedetomidine]
EEG spectral dynamics / sleep state induced (high-dose: about 0.9 to about 1.1 mcg/kg loading, about 0.80 to about 0.9 mcg/kg/hr maintenance, FIGS. 4A-4B): only slow-waves being induced
EEG spectral dynamics / sleep state induced (low-dose: about 0.9 to about 1.1 mcg/kg loading, about 0.60 to about 0.7 mcg/kg/hr maintenance, FIGS. 3A-3B): spindles and slow-waves that can closely resemble stage N2 NREM sleep
